# Source: PubChem BioAssay (NCI)
#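 Five concentrations, 48 hours, 96-well plates. The concentration for 50% growth inhibition is given as GI50. TGI: total growth inhibition.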
# Columns and labels:
# Assay in all cases: NCI anticancer screen, dose series, 48 h
# HL-60(TB) leukemia = test system: HL-60(TB) leukemia
# NCI-H23 lung = test system: NCI-H23 lung
# OVCAR-5 ovarian = test system: OVCAR-5 ovarian
# PC-3 prostate = test system: PC-3 prostate
# RXF 393 renal = test system: RXF 393 renal
# LOX IMVI melanoma = test system: LOX IMVI melanoma
# RPMI-8226 leukemia = test system: RPMI-8226 leukemia
# MDA-MB-435 = test system: MDA-MB-435
# HCC-2998 colon = test system: HCC-2998 colon
# TK-10 renal = test system: TK-10 renal
# UO-31 renal = test system: UO-31 renal
# NCI-H460 lung = test system: NCI-H460 lung
# MALME-3M melanoma = test system: MALME-3M melanoma
# COLO 205 colon = test system: COLO 205 colon
# NCI-H226 lung = test system: NCI-H226 lung
# 786-0 renal = test system: 786-0 renal
# IGROV1 ovarian = test system: IGROV1 ovarian
# UACC-62 melanoma = test system: UACC-62 melanoma
# SF-268 CNS = test system: SF-268 CNS
# OVCAR-4 ovarian = test system: OVCAR-4 ovarian
# HOP-62 NSCLC = test system: HOP-62 NSCLC
# CAKI-1 renal = test system: CAKI-1 renal
# NCI-H522 lung = test system: NCI-H522 lung
# SR leukemia = test system: SR leukemia
# CCRF-CEM leukemia = test system: CCRF-CEM leukemia
# M14 melanoma = test system: M14 melanoma
# MDA-MB-231 breast = test system: MDA-MB-231 breast
# SK-MEL-5 melanoma = test system: SK-MEL-5 melanoma
# SF-539 CNS = test system: SF-539 CNS
# MOLT-4 leukemia = test system: MOLT-4 leukemia
# DU-145 prostate = test system: DU-145 prostate
# HOP-92 NSCLC = test system: HOP-92 NSCLC
# U251 CNS = test system: U251 CNS
# SNB-75 CNS = test system: SNB-75 CNS
# BT-549 breast = test system: BT-549 breast
# OVCAR-3 ovarian = test system: OVCAR-3 ovarian
# SK-OV-3 ovarian = test system: SK-OV-3 ovarian
# K-562 leukemia = test system: K-562 leukemia
# SW-620 colon = test system: SW-620 colon
# A498 renal = test system: A498 renal
# EKVX NSCLC = test system: EKVX NSCLC
# NCI/ADR-RES ovarian = test system: NCI/ADR-RES ovarian
# T-47D breast = test system: T-47D breast
# MDA-MB-468 breast = test system: MDA-MB-468 breast
# SNB-19 CNS = test system: SNB-19 CNS
# KM12 colon = test system: KM12 colon
# SN12C renal = test system: SN12C renal
# ACHN renal = test system: ACHN renal
# HS 578T breast = test system: HS 578T breast
# OVCAR-8 ovarian = test system: OVCAR-8 ovarian
# MCF7 breast = test system: MCF7 breast
# HCT-116 colon = test system: HCT-116 colon
# UACC-257 melanoma = test system: UACC-257 melanoma
# HT29 colon = test system: HT29 colon
# SF-295 CNS = test system: SF-295 CNS
# SK-MEL-28 melanoma = test system: SK-MEL-28 melanoma
# A549 NSCLC = test system: A549 NSCLC
# SK-MEL-2 melanoma = test system: SK-MEL-2 melanoma
# HCT-15 colon = test system: HCT-15 colon
smiles,measurement,setting,value
COc1cc(Cn2c(C(F)(F)F)cc3c(Cl)ncnc32)ccn1,GI50,HL-60(TB) leukemia,2.14 µM
same,TGI,HL-60(TB) leukemia,7.28 µM
same,GI50,NCI-H23 lung,2.19 µM
same,TGI,NCI-H23 lung,4.91 µM
same,GI50,OVCAR-5 ovarian,16 µM
same,TGI,OVCAR-5 ovarian,32.4 µM
same,GI50,PC-3 prostate,5.56 µM
same,TGI,PC-3 prostate,20.8 µM
same,GI50,RXF 393 renal,7.9 µM
same,TGI,RXF 393 renal,22.4 µM
same,GI50,LOX IMVI melanoma,1.67 µM
same,TGI,LOX IMVI melanoma,3.17 µM
same,GI50,RPMI-8226 leukemia,15.4 µM
same,TGI,RPMI-8226 leukemia,78.6 µM
same,GI50,MDA-MB-435,3.26 µM
same,TGI,MDA-MB-435,14.6 µM
same,GI50,HCC-2998 colon,1.78 µM
same,TGI,HCC-2998 colon,3.27 µM
same,GI50,TK-10 renal,18.9 µM
same,TGI,TK-10 renal,46.9 µM
same,GI50,UO-31 renal,8.66 µM
same,TGI,UO-31 renal,24.1 µM
same,GI50,NCI-H460 lung,2.69 µM
same,TGI,NCI-H460 lung,8.19 µM
same,GI50,MALME-3M melanoma,12.6 µM
same,TGI,MALME-3M melanoma,25.5 µM
same,GI50,COLO 205 colon,15.3 µM
same,TGI,COLO 205 colon,46.3 µM
same,GI50,NCI-H226 lung,15.5 µM
same,TGI,NCI-H226 lung,32.3 µM
same,GI50,786-0 renal,10.6 µM
same,TGI,786-0 renal,25.9 µM
same,GI50,IGROV1 ovarian,1.78 µM
same,TGI,IGROV1 ovarian,3.62 µM
same,GI50,UACC-62 melanoma,8.1 µM
same,TGI,UACC-62 melanoma,20.6 µM
same,GI50,SF-268 CNS,2.47 µM
same,TGI,SF-268 CNS,9.37 µM
same,GI50,OVCAR-4 ovarian,12 µM
same,TGI,OVCAR-4 ovarian,26.7 µM
same,GI50,HOP-62 NSCLC,14.3 µM
same,TGI,HOP-62 NSCLC,29.7 µM
same,GI50,CAKI-1 renal,7.32 µM
same,TGI,CAKI-1 renal,20.6 µM
same,GI50,NCI-H522 lung,3.28 µM
same,TGI,NCI-H522 lung,15.3 µM
same,GI50,SR leukemia,3.61 µM
same,TGI,SR leukemia,> 100 µM
same,GI50,CCRF-CEM leukemia,3.14 µM
same,TGI,CCRF-CEM leukemia,18.6 µM
same,GI50,M14 melanoma,1.52 µM
same,TGI,M14 melanoma,4.16 µM
same,GI50,MDA-MB-231 breast,3.33 µM
same,TGI,MDA-MB-231 breast,12.6 µM
same,GI50,SK-MEL-5 melanoma,3.9 µM
same,TGI,SK-MEL-5 melanoma,14.1 µM
same,GI50,SF-539 CNS,13.8 µM
same,TGI,SF-539 CNS,26.7 µM
same,GI50,MOLT-4 leukemia,3.3 µM
same,TGI,MOLT-4 leukemia,> 100 µM
same,GI50,DU-145 prostate,1.76 µM
same,TGI,DU-145 prostate,3.22 µM
same,GI50,HOP-92 NSCLC,10.7 µM
same,TGI,HOP-92 NSCLC,30.3 µM
same,GI50,U251 CNS,15 µM
same,TGI,U251 CNS,28.9 µM
same,GI50,SNB-75 CNS,1.78 µM
same,TGI,SNB-75 CNS,7.27 µM
same,GI50,BT-549 breast,1.63 µM
same,TGI,BT-549 breast,3.16 µM
same,GI50,OVCAR-3 ovarian,2.32 µM
same,TGI,OVCAR-3 ovarian,7.05 µM
same,GI50,SK-OV-3 ovarian,17.1 µM
same,TGI,SK-OV-3 ovarian,32.3 µM
same,GI50,K-562 leukemia,2.36 µM
same,TGI,K-562 leukemia,> 100 µM
same,GI50,SW-620 colon,3.86 µM
same,TGI,SW-620 colon,16.7 µM
same,GI50,A498 renal,16 µM
same,TGI,A498 renal,30.8 µM
same,GI50,EKVX NSCLC,7.95 µM
same,TGI,EKVX NSCLC,23.9 µM
same,GI50,NCI/ADR-RES ovarian,15.3 µM
same,TGI,NCI/ADR-RES ovarian,33.7 µM
same,GI50,T-47D breast,13.4 µM
same,TGI,T-47D breast,61.6 µM
same,GI50,MDA-MB-468 breast,1.78 µM
same,TGI,MDA-MB-468 breast,3.77 µM
same,GI50,SNB-19 CNS,11.8 µM
same,TGI,SNB-19 CNS,24.1 µM
same,GI50,KM12 colon,13.5 µM
same,TGI,KM12 colon,30.5 µM
same,GI50,SN12C renal,9.21 µM
same,TGI,SN12C renal,21.5 µM
same,GI50,ACHN renal,14.4 µM
same,TGI,ACHN renal,28.8 µM
same,GI50,HS 578T breast,3.13 µM
same,TGI,HS 578T breast,16.6 µM
same,GI50,OVCAR-8 ovarian,11.4 µM
same,TGI,OVCAR-8 ovarian,26.6 µM
same,GI50,MCF7 breast,5.12 µM
same,TGI,MCF7 breast,19.8 µM
same,GI50,HCT-116 colon,1.74 µM
same,TGI,HCT-116 colon,4.3 µM
same,GI50,UACC-257 melanoma,8.49 µM
same,TGI,UACC-257 melanoma,21.7 µM
same,GI50,HT29 colon,14.1 µM
same,TGI,HT29 colon,41.3 µM
same,GI50,SF-295 CNS,16.8 µM
same,TGI,SF-295 CNS,32.5 µM
same,GI50,SK-MEL-28 melanoma,4.6 µM
same,TGI,SK-MEL-28 melanoma,16.1 µM
same,GI50,A549 NSCLC,16.4 µM
same,TGI,A549 NSCLC,38.4 µM
same,GI50,SK-MEL-2 melanoma,9.95 µM
same,TGI,SK-MEL-2 melanoma,22.5 µM
same,GI50,HCT-15 colon,3.09 µM
